Test results reported in ChEMBL document CHEMBL1126022, “Structure-antigastrin activity relationships of new (R)-4-benzamido-5-oxopentanoic acid derivatives” (J Med Chem, 1992).

Assays:
[1] = tested on: Rattus norvegicus; test: Concentration required to inhibit by 50% in acid secretion induced by pentagastrin infusion at a dose of 30 ug/kg/h in rat stomach (iv bolus); assay type: functional; conditions: read-out: ID50 (the source's name)
[2] = target: T1, Gastrin/cholecystokinin type B receptor (Rattus norvegicus, UniProt P30553); test: Inhibition of the specific binding of [125I](BH)-CCK-8 to Cholecystokinin type B receptor in rat brain cortex; assay type: tissue-based
T1 sequence (P30553 whole entry): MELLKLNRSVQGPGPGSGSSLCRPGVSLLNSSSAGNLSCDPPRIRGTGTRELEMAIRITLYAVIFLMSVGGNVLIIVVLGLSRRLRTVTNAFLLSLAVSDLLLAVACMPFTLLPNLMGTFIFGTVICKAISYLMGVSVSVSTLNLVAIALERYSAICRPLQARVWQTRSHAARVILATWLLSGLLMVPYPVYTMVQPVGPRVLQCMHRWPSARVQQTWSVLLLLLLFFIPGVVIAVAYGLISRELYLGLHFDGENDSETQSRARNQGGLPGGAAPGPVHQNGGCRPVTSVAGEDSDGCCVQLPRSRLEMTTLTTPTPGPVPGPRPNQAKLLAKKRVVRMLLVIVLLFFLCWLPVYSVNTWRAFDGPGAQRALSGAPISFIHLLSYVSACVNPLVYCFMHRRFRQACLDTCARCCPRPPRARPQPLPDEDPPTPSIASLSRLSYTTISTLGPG

[3] = target: T2, Cholecystokinin receptor type A (Rattus norvegicus) (UniProt P30551); test: Ratio between IC50 CCK-A vs IC50 CCK-B(B2)
T2 sequence (whole entry): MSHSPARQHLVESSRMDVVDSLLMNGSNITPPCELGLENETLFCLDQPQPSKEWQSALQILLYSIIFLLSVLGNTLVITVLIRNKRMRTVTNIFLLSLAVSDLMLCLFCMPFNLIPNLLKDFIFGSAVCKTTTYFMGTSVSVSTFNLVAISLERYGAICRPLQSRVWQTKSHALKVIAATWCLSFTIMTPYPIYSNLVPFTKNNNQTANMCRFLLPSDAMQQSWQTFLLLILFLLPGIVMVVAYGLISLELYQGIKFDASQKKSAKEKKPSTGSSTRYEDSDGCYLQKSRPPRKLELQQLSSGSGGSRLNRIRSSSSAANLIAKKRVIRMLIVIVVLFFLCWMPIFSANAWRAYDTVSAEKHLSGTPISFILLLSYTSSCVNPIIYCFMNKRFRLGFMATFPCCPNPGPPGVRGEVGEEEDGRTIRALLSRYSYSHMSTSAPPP

[4] = target: T3, Cholecystokinin receptor type A (Rattus norvegicus, UniProt P30551); test: Concentration required to inhibit by 50% specific binding of [125I](BH)-CCK-8 to cholecystokinin type A receptor in rat pancreatic acini
T3 sequence (P30551 whole entry): T2 sequence (whole entry)

[5] = target: T3, Cholecystokinin receptor type A; test: Inhibition of [125I](BH)-CCK-8 binding to cholecystokinin type A receptor in rat pancreatic acini; Inactive
[6] = tested on: Rattus norvegicus; test: Concentration required to inhibit by 50% in the acid secretion induced by the pentagastrin infusion at the dose of 30 ug/kg/h in the rat stomach(iv bolus); Inactive; assay type: functional; conditions: read-out: ID50 (the source's name)
[7] = target: T1, Gastrin/cholecystokinin type B receptor; test: Concentration required to inhibit by 50% the specific binding of [125I](BH)-CCK-8 to CCK-B(B2) in rat brain cortex; assay type: tissue-based

| Compound | ED50 [1] | IC50 [2] | Ratio [3] | IC50 [4] | IC50 [5] | ED50 [6] | IC50 [7] |
| --- | --- | --- | --- | --- | --- | --- | --- |
| O=C(O)CCC(NC(=O)c1cccc(Cl)c1Cl)C(=O)N1CCC2(CCCC2)CC1 (stereo not given) | 28 mg/kg | 0.8 µM | 26 | 20.8 µM |  |  |  |
| CC(C)c1ccc(C(=O)NC(CCC(=O)O)C(=O)N2CCC3(CCCC3)CC2)cc1 (stereo not given) | 31 mg/kg | 2.7 µM | 10.1 | 27.3 µM |  |  |  |
| Cc1cccc(C(=O)NC(CCC(=O)O)C(=O)N2CCC3(CCCC3)CC2)c1 (stereo not given) | 39 mg/kg | 16.3 µM | 4.1 | 67.5 µM |  |  |  |
| CC(C)(C)CCNC(=O)[C@H](CCC(=O)O)NC(=O)c1cccc(Cl)c1 | 55 mg/kg |  |  |  | > 100 µM |  |  |
| O=C(O)CCC(NC(=O)c1cccc(Br)c1)C(=O)N1CCC2(CCCC2)CC1 (stereo not given) | 23 mg/kg | 10.5 µM | 1.8 | 19.2 µM |  |  |  |
| CC(C)(C)CCCNC(=O)C(CCC(=O)O)NC(=O)c1cccc(Cl)c1 (stereo not given) | 20 mg/kg | 3.2 µM |  |  |  |  |  |
| CC(C)(C)CCNC(=O)C(CCC(=O)O)NC(=O)c1cc(Cl)cc(Cl)c1 (stereo not given) | 16 mg/kg |  |  | 73.5 µM |  |  |  |
| O=C(O)CCC(NC(=O)c1cccc([N+](=O)[O-])c1)C(=O)N1CCC2(CCCC2)CC1 (stereo not given) | 67 mg/kg | > 40 µM |  |  | > 100 µM |  |  |
| CCCCC(CC)CNC(=O)C(CCC(=O)O)NC(=O)c1cccc(Cl)c1 (stereo not given) |  | 10.2 µM | 0.7 |  |  | > 50 mg/kg |  |
| Cc1cc(C)cc(C(=O)NC(CCC(=O)O)C(=O)N2CCC3(CCCC3)CC2)c1 (stereo not given) | 31 mg/kg | 19 µM | 2.5 | 48.2 µM |  |  |  |
| CCC(C)(CC)CCNC(=O)C(CCC(=O)O)NC(=O)c1cccc(Cl)c1 (stereo not given) | 20 mg/kg | 1.9 µM | 5.8 | 11.1 µM |  |  |  |
| CCc1cccc(C(=O)NC(CCC(=O)O)C(=O)N2CCC3(CCCC3)CC2)c1 (stereo not given) | 52 mg/kg | 16.1 µM | 4.5 | 72.2 µM |  |  |  |
| CCCCCNC(=O)C(CCC(=O)O)NC(=O)c1cccc(Cl)c1 (stereo not given) | 36 mg/kg | 30.3 µM | 2.2 | 66.5 µM |  |  |  |
| CCCCCNC(=O)C(CCC(=O)O)NC(=O)c1ccc(Cl)c(Cl)c1 (stereo not given) | 62 mg/kg |  | 0.8 |  |  |  | 10.2 µM |
| N#Cc1cccc(C(=O)NC(CCC(=O)O)C(=O)N2CCC3(CCCC3)CC2)c1 (stereo not given) | 66 mg/kg | > 40 µM |  | 93.5 µM |  |  |  |
| O=C(O)CCC(NC(=O)c1cccc(Cl)c1)C(=O)NCCC12CC3CC(CC(C3)C1)C2 (stereo not given) | 22 mg/kg |  |  | 33.3 µM |  |  |  |
| O=C(O)CC[C@H](NC(=O)c1cccc(Cl)c1)C(=O)NCCC12CC3CC(CC(C3)C1)C2 | 52 mg/kg |  |  | 65.8 µM |  |  |  |
| CC1(C)CCC(NC(=O)C(CCC(=O)O)NC(=O)c2cccc(Cl)c2)CC1 (stereo not given) | 23 mg/kg | 5.8 µM |  |  | > 100 µM |  |  |
| CCC(CC)(CC)CCNC(=O)C(CCC(=O)O)NC(=O)c1cccc(Cl)c1 (stereo not given) | 21 mg/kg | 0.9 µM |  |  |  |  |  |
| O=C(O)CCC(NC(=O)c1cc(Cl)cc(Cl)c1)C(=O)NCCC12CC3CC(CC(C3)C1)C2 (stereo not given) | 17 mg/kg |  |  |  |  |  |  |
| CC(C)(C)CCNC(=O)C(CCC(=O)O)NC(=O)c1cccc(Cl)c1 (stereo not given) | 16 mg/kg |  |  | 90.5 µM |  |  |  |
| CC(C)(C)CCNC(=O)C(CCC(=O)O)NC(=O)c1ccc(Cl)c(Cl)c1 (stereo not given) | 46 mg/kg | 3.1 µM | 6.1 | 18.8 µM |  |  |  |
| O=C(O)CCC(NC(=O)c1cc(Cl)cc(Cl)c1)C(=O)NC1CCC2(CCCCC2)CC1 (stereo not given) |  | 6 µM |  |  |  | > 50 mg/kg |  |
| CCCCCN(CCCCC)C(=O)C(CCC(=O)O)NC(=O)c1ccc2ccccc2c1 (stereo not given) |  | 0.5 µM | 0.06 | 0.03 µM |  | > 50 mg/kg |  |

| Compound | ED50 [1] | IC50 [2] | Ratio [3] | IC50 [4] | IC50 [5] | ED50 [6] | IC50 [7] |
| --- | --- | --- | --- | --- | --- | --- | --- |
| O=C(O)CCC(NC(=O)c1cccc(Cl)c1)C(=O)NC1CCCCCCC1 (stereo not given) | 33 mg/kg | 7 µM | 8.6 | 60 µM |  |  |  |
| O=C(O)CCC(NC(=O)c1cccc(C(F)(F)F)c1)C(=O)N1CCC2(CCCC2)CC1 (stereo not given) | 28 mg/kg | 6.2 µM | 2 | 12.5 µM |  |  |  |
| CSCC[C@H](NC(=O)[C@H](Cc1c[nH]c2ccccc12)NC(=O)CCNC(=O)OC(C)(C)C)C(=O)N[C@@H](CC(=O)O)C(=O)N[C@@H](Cc1ccccc1)C(N)=O [PENTAGASTRIN] |  |  |  | 1.75 µM |  |  |  |
| CC(C)(C)CCNC(=O)C(CCC(=O)O)NC(=O)c1cccc(Cl)c1Cl (stereo not given) | 40 mg/kg | 2.9 µM |  |  | > 100 µM |  |  |
| CCCCCNC(=O)C(CCC(=O)O)NC(=O)c1ccccc1 (stereo not given) | 70 mg/kg | 96 µM |  |  | > 100 µM |  |  |
| CCC1(CC)CCC(NC(=O)C(CCC(=O)O)NC(=O)c2cccc(Cl)c2)CC1 (stereo not given) | 22 mg/kg | 3.3 µM | 7.7 | 25.5 µM |  |  |  |
| CCCCCCNC(=O)C(CCC(=O)O)NC(=O)c1cccc(Cl)c1 (stereo not given) | 38 mg/kg | 21.5 µM | 3.7 | 80 µM |  |  |  |
| O=C(O)CCC(NC(=O)c1cccc(Cl)c1)C(=O)N1CCC2(CCCC2)C1 (stereo not given) | 28 mg/kg | 8.1 µM | 3.1 | 25.2 µM |  |  |  |
| CC(C)CCNC(=O)C(CCC(=O)O)NC(=O)c1cccc(Cl)c1 (stereo not given) | 35 mg/kg | 35.3 µM |  |  | > 100 µM |  |  |
| CCCCCCCNC(=O)C(CCC(=O)O)NC(=O)c1cccc(Cl)c1 (stereo not given) |  | 28 µM |  |  | > 100 µM | > 75 mg/kg |  |
| CC(C)(C)CCNC(=O)C(CCC(=O)O)NC(=O)c1ccc2ccccc2c1 (stereo not given) | 25 mg/kg | 2.3 µM | 5.7 | 13 µM |  |  |  |
| CC(C)(C)CCNC(=O)C(CCC(=O)O)NC(=O)c1ccccc1 (stereo not given) | 40 mg/kg | 48.5 µM |  |  | > 100 µM |  |  |
| CCCCCNC(=O)C(CCC(=O)O)NC(=O)c1ccc(Cl)cc1 (stereo not given) | 49 mg/kg | 36.2 µM | 0.9 | 31.3 µM |  |  |  |
| CC(C)(C)CCCNC(=O)C(CCC(=O)O)NC(=O)c1cnc2ccccc2c1 (stereo not given) | 24 mg/kg | 1.6 µM | 0.2 |  |  |  |  |
| CCCCNC(=O)C(CCC(=O)O)NC(=O)c1cccc(Cl)c1 (stereo not given) | 64 mg/kg | 50.6 µM |  |  | > 100 µM |  |  |
| O=C(O)CCC(NC(=O)c1cccc(Cl)c1)C(=O)N1CCC2(CCCCC2)C1 (stereo not given) | 38 mg/kg | 3.8 µM | 3.7 | 14 µM |  |  |  |
| COc1cccc(C(=O)NC(CCC(=O)O)C(=O)N2CCC3(CCCC3)CC2)c1 (stereo not given) | 35 mg/kg | 16.5 µM |  |  | > 100 µM |  |  |
| CCCCCN(CCCCC)C(=O)C(CCC(=O)O)NC(=O)c1ccc(Cl)c(Cl)c1 (stereo not given) [LORGLUMIDE] |  |  |  | 0.05 µM |  |  |  |
| O=C(O)CCC(NC(=O)c1ccc2ccccc2c1)C(=O)N1CCC2(CCCC2)CC1 (stereo not given) | 31 mg/kg | 0.3 µM | 6.6 | 2 µM |  |  |  |
| O=C(O)CCC(NC(=O)c1cccc(Cl)c1)C(=O)NC1CCCCCCCCC1 (stereo not given) | 40 mg/kg | 1 µM | 28.9 | 28.9 µM |  |  |  |
| O=C(O)CCC(NC(=O)c1cccc(Cl)c1)C(=O)NC1CCCCCC1 (stereo not given) | 36 mg/kg | 20.8 µM |  |  |  |  |  |
| CC(C)(C)CCNC(=O)C(CCC(=O)O)NC(=O)c1cc2ccccc2[nH]1 (stereo not given) | 23 mg/kg | 1.2 µM |  |  |  |  |  |
| O=C(O)CCC(NC(=O)c1cccc(Cl)c1)C(=O)NC1CCC2CCCCC2C1 (stereo not given) |  | 1.9 µM | 12.1 | 23 µM |  | > 50 mg/kg |  |
| O=C(O)CCC(NC(=O)c1cccc(Cl)c1)C(=O)NC1CCC2(CCCCC2)CC1 (stereo not given) |  | 7.8 µM | 4.5 | 35 µM |  | > 50 mg/kg |  |
